ChEMBL document CHEMBL1135738, “Synthesis of novel cationic lipids: effect of structural modification on the efficiency of gene transfer” (J Med Chem, 2002)

System: V79
Experiment: Cytotoxic effect of compound was measured in lipid V79cell formulation.
Assay type: functional, cell-based
Settings: Cricetulus griseus

Compound: CCCCCCCCCCCCCCCCCCOCC(CN)OCCCCCCCCCCCC (stereo not given)
- IC50: 76 µM

Compound: CCCCCCCCCCCCCCCCCCOCC(CN)OCCCCCCCCCCCCCCCCCC (stereo not given)
- IC50: 67 µM

Compound: CCCCCCCCCCCCOCC(CNC(=O)[C@@H](N)CCCN=C(N)N)OCCCCCCCCCCCC (stereo not given in full)
- IC50: 20 µM

Compound: CCCCCCCCCCCCOCC(CN)OCCCCCCCCCCCC (stereo not given)
- IC50: 75 µM

Compound: CCCCCCCCCCCCOCC(CNC(=O)[C@@H](N)CCCCN)OCCCCCCCCCCCC (stereo not given in full)
- IC50: 34 µM
